Paper PMC8219408, “Switching Cytolytic Nanopores into Antimicrobial Fractal Ruptures by a Single Side Chain Mutation” (ACS nano, 2021)
pKd: −log10 of the molar value. Values after ≈ are worked out from the molar mass of the structure shown. Where two headings read alike, the source gives them in different places. Bridge positions count the residues as written; N and C are the ends. Square brackets hold non-standard residues; d marks the D form. Peptide text beside a SMILES is read from it. * marks the point of attachment. X1 = CC[C@H](C)CCCCC(=O)*; Dab = NCC[C@H](N)C(=O)O

Legend:
B. subtilis (ATCC 6633) = format: cell-based
Method: (§1) MIC values were obtained using broth microdilution against different bacteria following the protocols by Clinical and Laboratory Standards Institute. Specifically, each bacterium (100 μL of 0.5–1 × 10^6 CFU per ml) in Mueller Hinton media broth (Oxoid) was incubated in 96-well microtiter plates at 37 °C on a 3D orbital shaker. 100 μL of serial twofold peptide dilutions (from 100 to 0 μM) were used. Following peptide addition, absorbance (600 nm) was measured in a SpectraMax i3x multi-mode microplate reader (Molecular Devices). The lowest peptide concentrations inhibiting visible bacterial growth after 24 h at 37 °C was defined as MICs. All tests were performed in triplicate.

E. coli (ATCC 15597) = format: cell-based
Method: as §1

[1] = test system: K. pneumoniae (NCTC 5055); format: cell-based
Method: as §1

M. luteus (ATCC 49732) = format: cell-based
Method: as §1

[2] = test system: P. aeruginosa (ATCC 27853); format: cell-based
Method: as §1

S. aureus (ATCC 6538) = format: cell-based
Method: as §1

S. typhimurium (6192) = format: cell-based
Method: as §1

Human erythrocytes = assay: Hemolysis assay; format: cell-based
Method: For hemolysis measurements 10% (vol/vol) suspensions of human erythrocytes with peptides were used. Phosphate buffer saline (PBS, 10 mM, pH 7.2) was used to rinse human red blood cells (4x) using repeated centrifugation and re-suspension (3 min, 3000 × g). The cells were incubated for 1 h at room temperature in deionized water (fully hemolysed control), with peptide in PBS or just PBS, which was followed by centrifugation (5 min, 10000 × g). The obtained supernatant was then separated from the pellet, and absorbance (550 nm) was measured in a SpectraMax i3x multi-mode microplate reader (Molecular Devices). Absorbance obtained for the suspension that was treated with deionized water gave complete (100%) hemolysis. Table S1 summarises the results, with the values corresponding to % hemolysis for peptide at 250 μM. All tests were performed in triplicate.

[3] = target: DLPC/DLPG (3:1 molar ratio) unilamellar vesicles; assay: Isothermal titration calorimetry, anionic vesicles; conditions: ITC, peptide (500 μM) titrated into DLPC/DLPG (3:1) vesicles (380 μM total lipid), 25 °C, one-set binding model, duplicate; read-out: dissociation constant (KD)
Method: The lipids used for the assembly of unilamellar vesicles were from Avanti Polar Lipids: 1,2-dilauroylphosphatidylcholine (DLPC) was used for zwitterionic vesicles, while its mixture with 1,2-dilauroyl-sn-glycero-3-phospho-(1’-rac-glycerol) (DLPG) at a 3:1 molar ratio was used for anionic vesicles. After weighting up the lipid aliquots were dissolved in chloroform and dried under a nitrogen stream until a thin film was formed. The obtained film was subjected to hydration in 10 mM phosphate buffer (pH 7.4), which was followed by vortexing (1x, 2 min) and sonication (1x, 30 min). A hand-held extruder (Avanti Polar lipids) was used to extrude the resulting suspension (29x, polycarbonate filter, 0.05 μm) until a clear solution containing small unilamellar vesicles (SUV) was obtained. The SUVs were then analysed (50 nm) using a Zetasizer Nano (ZEN3600, Malvern Instruments, UK) and re-suspended to a final concentration of 1 mg/mL. The measurements were performed using a low volume disposable cuvette at 25°C. […]
A Microcal isothermal titration calorimeter-200 (ITC-200) was used to carry out all ITC experiments. […] Binding isotherms were recorded for peptides (500 μM) titrated into unilamellar phospholipid vesicles (380 μM, total lipid) in the cell. […]

[4] = K. pneumoniae (NCTC 5055), broth microdilution (CLSI), Mueller Hinton broth, 24 h at 37 °C, triplicate

pKd [3] | Compound | Minimum inhibitory concentration (B. subtilis (ATCC 6633); ATCC 6633, 24 h) [µM] | Minimum inhibitory concentration (E. coli (ATCC 15597); ATCC 15597, 24 h) [µM] | Minimum inhibitory concentration ([1]; NCTC 5055, 24 h) [µM] | Minimum inhibitory concentration (M. luteus (ATCC 49732); ATCC 49732, 24 h) [µM] | Minimum inhibitory concentration ([2]; ATCC 27853, 24 h) [µM] | Minimum inhibitory concentration (S. aureus (ATCC 6538); ATCC 6538, 24 h) [µM] | Minimum inhibitory concentration (S. typhimurium (6192); 6192, 24 h) [µM] | hemolytic activity (in words) (Human erythrocytes) | % hemolysis, at 250 μM (Human erythrocytes; 250 µM, pH 7.2) [%] | Minimum inhibitory concentration (B. subtilis (ATCC 6633); B. subtilis (ATCC 6633), broth microdilution (CLSI), Mueller Hinton broth, 24 h at 37 °C, triplicate) [µM] | Minimum inhibitory concentration (E. coli (ATCC 15597); E. coli (ATCC 15597), broth microdilution (CLSI), Mueller Hinton broth, 0.5–1 × 10^6 CFU per ml, 24 h at 37 °C, absorbance 600 nm, triplicate) [µM] | Minimum inhibitory concentration [1, 4] [µM] | Minimum inhibitory concentration (M. luteus (ATCC 49732); M. luteus (ATCC 49732), broth microdilution (CLSI), Mueller Hinton broth, 24 h at 37 °C, triplicate) [µM] | Minimum inhibitory concentration ([2]; P. aeruginosa (ATCC 27853), broth microdilution (CLSI), Mueller Hinton broth, 24 h at 37 °C, triplicate) [µM] | Minimum inhibitory concentration (S. aureus (ATCC 6538); S. aureus (ATCC 6538), broth microdilution (CLSI), Mueller Hinton broth, 24 h at 37 °C, triplicate) [µM] | Minimum inhibitory concentration (S. typhimurium (6192); S. typhimurium (6192), broth microdilution (CLSI), Mueller Hinton broth, 24 h at 37 °C, triplicate) [µM] | % hemolysis, at 250 μM (Human erythrocytes; peptide at 250 μM, 10% (vol/vol) human erythrocytes in PBS pH 7.2, 1 h at room temperature, absorbance 550 nm, deionized water = 100%, triplicate) [%]
 | CC(C)C[C@H](NC(=O)[C@H](C)NC(=O)[C@H](CC(C)C)NC(=O)[C@H](CCCNC(=N)N)NC(=O)[C@H](CC(C)C)NC(=O)[C@H](CC(C)C)NC(=O)[C@@H](N)CCCNC(=N)N)C(=O)N[C@@H](CCCNC(=N)N)C(=O)N[C@@H](CC(C)C)C(=O)N[C@@H](CC(C)C)C(=O)N[C@@H](CCCNC(=N)N)C(N)=O [bienA11] (H-RLLRLALRLLR-NH2; N-terminus assumed) | 6 (≈ 8.35 µg/mL) | 3 (≈ 4.18 µg/mL) | 6 (≈ 8.35 µg/mL) | 1.5 (≈ 2.09 µg/mL) | 3 (≈ 4.18 µg/mL) | 3 (≈ 4.18 µg/mL) | 12 (≈ 16.7 µg/mL) | hemolytic | 25 |  |  |  |  |  |  |  | 
 | CC[C@H](C)CCCCC(=O)N[C@@H](CCN)C(=O)N[C@H](C(=O)N[C@@H](CCN)C(=O)N[C@H]1CCNC(=O)[C@H]([C@@H](C)O)NC(=O)[C@H](CCN)NC(=O)[C@H](CCN)NC(=O)[C@H](CC(C)C)NC(=O)[C@@H](Cc2ccccc2)NC(=O)[C@H](CCN)NC1=O)[C@@H](C)O [polymyxin B, reference compound] (X1-[Dab]T[Dab][Dab][Dab][dF]L[Dab][Dab]T; lactam 4-C (inferred); N-terminus assumed) |  |  |  |  |  |  |  |  |  | 3 (≈ 3.61 µg/mL) | 1.5 (≈ 1.81 µg/mL) | 3 (≈ 3.61 µg/mL) | 1.5 (≈ 1.81 µg/mL) | 1.5 (≈ 1.81 µg/mL) | 25 (≈ 30.1 µg/mL) | 1.5 (≈ 1.81 µg/mL) | 5
5.67 | CC(C)C[C@H](NC(=O)[C@H](CCCNC(=N)N)NC(=O)[C@H](CC(C)C)NC(=O)[C@H](CCCCN)NC(=O)[C@H](CC(C)C)NC(=O)[C@H](CCCNC(=N)N)NC(=O)[C@H](CC(C)C)NC(=O)[C@H](CC(C)C)NC(=O)[C@@H](N)CCCNC(=N)N)C(N)=O [bienK9] (H-RLLRLKLRL-NH2; N-terminus assumed) | 3 (≈ 3.54 µg/mL) | 3 (≈ 3.54 µg/mL) | > 50 | 1.5 (≈ 1.77 µg/mL) | 6 (≈ 7.08 µg/mL) | 12 (≈ 14.2 µg/mL) | 50 (≈ 59 µg/mL) |  | 0 |  |  |  |  |  |  |  | 
 | CC(C)C[C@H](NC(=O)[C@H](CC(C)C)NC(=O)[C@H](CCCNC(=N)N)NC(=O)[C@H](CC(C)C)NC(=O)[C@H](C)NC(=O)[C@H](CC(C)C)NC(=O)[C@H](CCCNC(=N)N)NC(=O)[C@H](CC(C)C)NC(=O)[C@H](CC(C)C)NC(=O)[C@@H](N)CCCNC(=N)N)C(N)=O [bienA10] (H-RLLRLALRLL-NH2; N-terminus assumed) | 1.5 (≈ 1.85 µg/mL) | 3 (≈ 3.71 µg/mL) | 3 (≈ 3.71 µg/mL) | 1.5 (≈ 1.85 µg/mL) | 25 (≈ 30.9 µg/mL) | 3 (≈ 3.71 µg/mL) | 6 (≈ 7.41 µg/mL) |  | 25 |  |  |  |  |  |  |  | 
 | CC(C)C[C@H](NC(=O)[C@H](CC(C)C)NC(=O)[C@H](CCCNC(=N)N)NC(=O)[C@H](CC(C)C)NC(=O)[C@H](CCCCN)NC(=O)[C@H](CC(C)C)NC(=O)[C@H](CCCNC(=N)N)NC(=O)[C@H](CC(C)C)NC(=O)[C@H](CC(C)C)NC(=O)[C@@H](N)CCCNC(=N)N)C(N)=O [bienK10] (H-RLLRLKLRLL-NH2; N-terminus assumed) | 6 (≈ 7.76 µg/mL) | 3 (≈ 3.88 µg/mL) | > 50 | 1.5 (≈ 1.94 µg/mL) | 25 (≈ 32.3 µg/mL) | 25 (≈ 32.3 µg/mL) | 50 (≈ 64.6 µg/mL) |  | 0 |  |  |  |  |  |  |  | 
 | CC(C)C[C@H](NC(=O)[C@H](CC(C)C)NC(=O)[C@H](CCCNC(=N)N)NC(=O)[C@H](CC(C)C)NC(=O)[C@H](CCCCN)NC(=O)[C@H](CC(C)C)NC(=O)[C@H](CCCNC(=N)N)NC(=O)[C@H](CC(C)C)NC(=O)[C@H](CC(C)C)NC(=O)[C@@H](N)CCCNC(=N)N)C(=O)N[C@@H](CCCNC(=N)N)C(N)=O [bienK11] (H-RLLRLKLRLLR-NH2) | 3 (≈ 4.35 µg/mL) | 3 (≈ 4.35 µg/mL) | > 50 | 1.5 (≈ 2.17 µg/mL) | 12 (≈ 17.4 µg/mL) | 12 (≈ 17.4 µg/mL) | 50 (≈ 72.4 µg/mL) | non-hemolytic | 0 |  |  |  |  |  |  |  | 
6.77 | CC(C)C[C@H](NC(=O)[C@H](CCCNC(=N)N)NC(=O)[C@H](CC(C)C)NC(=O)[C@H](C)NC(=O)[C@H](CC(C)C)NC(=O)[C@H](CCCNC(=N)N)NC(=O)[C@H](CC(C)C)NC(=O)[C@H](CC(C)C)NC(=O)[C@@H](N)CCCNC(=N)N)C(N)=O [bienA9] (H-RLLRLALRL-NH2; N-terminus assumed) | 6 (≈ 6.73 µg/mL) | 6 (≈ 6.73 µg/mL) | 50 (≈ 56.1 µg/mL) | 1.5 (≈ 1.68 µg/mL) | 50 (≈ 56.1 µg/mL) | 25 (≈ 28.1 µg/mL) | 50 (≈ 56.1 µg/mL) |  | 25 |  |  |  |  |  |  |  | 
 | CC[C@H](C)[C@H](NC(=O)CN)C(=O)NCC(=O)N[C@@H](C)C(=O)N[C@H](C(=O)N[C@@H](CC(C)C)C(=O)N[C@@H](CCCCN)C(=O)N[C@H](C(=O)N[C@@H](CC(C)C)C(=O)N[C@H](C(=O)N[C@H](C(=O)NCC(=O)N[C@@H](CC(C)C)C(=O)N1CCC[C@H]1C(=O)N[C@@H](C)C(=O)N[C@@H](CC(C)C)C(=O)N[C@H](C(=O)N[C@@H](CO)C(=O)N[C@@H](Cc1c[nH]c2ccccc12)C(=O)N[C@H](C(=O)N[C@@H](CCCCN)C(=O)N[C@@H](CCCNC(=N)N)C(=O)N[C@@H](CCCCN)C(=O)N[C@@H](CCCNC(=N)N)C(=O)N[C@@H](CCC(N)=O)C(=O)N[C@@H](CCC(N)=O)C(N)=O)[C@@H](C)CC)[C@@H](C)CC)[C@@H](C)O)[C@@H](C)O)C(C)C)C(C)C [melittin, reference compound] |  |  |  |  |  |  |  |  |  |  |  | 3 (≈ 8.54 µg/mL) |  |  |  |  | 
